Data: patent US7915293B2, “Ubiquitin ligase inhibitors” (Rigel Pharmaceuticals, Inc., priority 2003, dated 2011)

How the values were obtained:
Set-up in all cases: key: “+” indicates that the compound exibits inhibitory activity; “−” indicates that low or no inhibitory activity was observed
[1] = biological target: E3 (His-APC11/APC2-"APC") (Homo sapiens, UniProt Q9NYG5+Q9UJX6); experiment: Plate-based E3 ligase assay (APC FLAG), auto-ubiquitination; format: biochemical; settings: 8 concentrations tested
Sequence of E3 (His-APC11/APC2-"APC") (Q9NYG5 whole entry): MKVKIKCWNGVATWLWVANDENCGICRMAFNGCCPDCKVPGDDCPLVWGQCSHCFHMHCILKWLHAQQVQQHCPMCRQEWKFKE
Sequence of E3 (His-APC11/APC2-"APC") (Q9UJX6 whole entry): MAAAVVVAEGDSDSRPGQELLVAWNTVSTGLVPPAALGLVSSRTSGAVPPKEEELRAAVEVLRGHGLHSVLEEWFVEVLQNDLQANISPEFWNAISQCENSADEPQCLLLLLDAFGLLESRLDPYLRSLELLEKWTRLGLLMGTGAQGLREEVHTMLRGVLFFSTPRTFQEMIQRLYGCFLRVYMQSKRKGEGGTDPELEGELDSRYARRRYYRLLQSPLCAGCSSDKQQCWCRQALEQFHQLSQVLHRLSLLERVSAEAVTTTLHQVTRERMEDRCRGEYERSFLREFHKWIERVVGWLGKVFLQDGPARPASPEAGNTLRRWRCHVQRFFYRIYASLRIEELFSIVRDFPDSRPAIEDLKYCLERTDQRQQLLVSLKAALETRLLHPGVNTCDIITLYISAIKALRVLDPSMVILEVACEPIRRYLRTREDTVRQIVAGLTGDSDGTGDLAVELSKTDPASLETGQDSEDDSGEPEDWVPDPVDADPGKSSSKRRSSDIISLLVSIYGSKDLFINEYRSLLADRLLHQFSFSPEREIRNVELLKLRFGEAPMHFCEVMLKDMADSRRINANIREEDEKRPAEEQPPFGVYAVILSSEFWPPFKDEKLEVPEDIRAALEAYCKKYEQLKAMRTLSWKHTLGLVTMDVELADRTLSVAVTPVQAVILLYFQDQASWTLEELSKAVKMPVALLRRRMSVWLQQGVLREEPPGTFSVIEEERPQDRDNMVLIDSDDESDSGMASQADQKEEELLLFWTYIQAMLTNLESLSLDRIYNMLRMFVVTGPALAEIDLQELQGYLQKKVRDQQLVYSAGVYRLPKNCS
How it was run: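 His-APC11/APC2 auto-ubiquitination was run in casein-blocked nickel plates for 1 h at room temperature, with E1 at 5 ng/well, UbcH5c at 20 ng/well and APC at 100 ng/well. Buffer was 62.5 mM Tris pH 7.6, 3 mM MgCl2, 1 mM DTT, 2.5 mM ATP and Flag-ubiquitin at 100 ng/well. Detection used anti-Flag/HRP chemiluminescence, and IC50 was typically from 6 or 8 concentrations versus a DMSO control.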

HeLa cells = experiment: Cell proliferation assay, photographic image analysis of proliferation, apoptosis and death (PAD assay), HeLa; format: cell-based; settings: 6 concentrations tested
Protocol: (§1) A549 (ATCC# CCL-185), HeLa (ATCC# CCL-2), HCT116 (ATCC# CCL-247), and H1299 (ATCC# CRL-5803) cells were maintained in T175 flasks following the ATCC recommended media and handling procedures. Flasks reaching approximately 70% confluency were trypsinized and resuspended in RPMI media (Cell-Gro catalog number 10-040-CM) modified to contain 5% FBS, 100 ug/mlPen/Strep (Cell-Gro catalog number 30-002-CL), and 0.3 mg/ml L-Glutamine (Cell-Gro catalog number 25-003-CL). A 20,000 cells/ml solution was made for plating. Cells were plated in black Packard 96 well plates by placing 100 μl per well (2,000 cells per well).
(§2) Compounds and additional media were added 24 hours after cell plating. A compound master plate was created with concentrations 500 times greater than the final concentration added to the cells. All compound testing was done in duplicate using 6.3 fold dilutions starting with 10 mM. All outside wells (and 4 internal wells) were DMSO controls. Taxol and at least one additional control were run on all plates. Three microliters of the compound master plate were added to deep well blocks containing 750 μl of RPMI media. One hundred microliters were transferred from the compound/media deep well blocks to the plated cells resulting in a 500 fold dilution of the compounds. Cells were grown at 37° C., 5% CO2 for 48 hours.
(§3) Cells to be analyzed by photography were fixed and stained. One hundred microliters of media were removed and 100 μl of 9.3% […] was added to each well. Plates were left on the benchtop for 45 minutes. A staining solution containing 1.55 μl of 1 mg/ml DAPI added to 18.75 ml PBS was warmed for 15 minutes at 37° C. The cells were aspirated prior to washing with 100 μl of PBS. Seventy microliters of PBS were aspirated and 170 μl of the DAPI solution were added to each well of fixed cells. Plates were left at room temperature for one hour then aspirated and washed twice with 100 μl of PBS. The stained cells were left at 4° C. for a minimum of 16 hours before photographic analysis with Array Scan II (Cellomics). Analysis of the photographic images to determine numbers of live cells (proliferation), apoptotic cells and dead cells, were according to the methods described in U.S. Provisional Patent Application Ser. No. 60/406,714, which incorporated herein in its entirety.

A549 cells = experiment: Cell proliferation assay, photographic image analysis of proliferation, apoptosis and death (PAD assay), A549; format: cell-based; settings: 6 concentrations tested
Protocol: as §1, §2, §3

Row | APC Flag 8 pt [1] | Structure (SMILES) | PAD Assay, HELA 6 pt (HeLa cells) | PAD Assay, A549 6 pt (A549 cells)
1 | + | Cc1c(Cl)cccc1S(=O)(=O)Nc1ccc(Oc2ccc(F)cc2)c(Br)c1 [Example 281, N-[3-bRomo-4-(4-fluorophenoxy)phenyl]-3-chloro-2-methylbenzenesulfonamide] | + | +
2 | + | O=S(=O)(Nc1ccc(Oc2ccc(F)cc2)c(Br)c1)c1cc(Cl)ccc1Cl [Example 278, N-[3-bRomo-4-(4-fluorophenoxy)phenyl]-2,5-dichlorobenzenesulfonamide] | + | +
3 | + | O=[N+]([O-])c1ccc(Oc2ccc(NS(=O)(=O)c3cc(Cl)ccc3Cl)cc2)cc1 [Compound 273, 2,5-dichloro-N-[4-(4-nitrophenoxy)phenyl]benzenesulfonamide] | − | +
4 | + | O=[N+]([O-])c1ccc(Oc2c(Cl)cc(S(=O)(=O)Nc3ccc(Oc4ccc(F)cc4)c(Br)c3)cc2Cl)c(Cl)c1 [Example 291, N-[3-bRomo-4-(4-fluorophenoxy)phenyl]-3,5-dichloro-4-(2-chloro-4-nitrophenoxy) benzenesulfonamide] | + | +
5 | + | O=S(=O)(Nc1ccc(Oc2ccc(F)cc2)c(Br)c1)c1ccc(F)cc1 [Example 283, N-[3-bRomo-4-(4-fluorophenoxy)phenyl]-4-fluorobenzenesulfonamide] | − | +
6 | + | O=[N+]([O-])c1ccc(Oc2c(Cl)cc(S(=O)(=O)Nc3cccc4c3OC(F)(F)C(F)(F)O4)cc2Cl)c(Cl)c1 [Example 192, 3,5-dichloro-4-(2-chloro-4-nitrophenoxy)-N-(2,2,3,3-tetrafluoro-2,3-dihydro-1,4-benzodioxin-5-yl)benzenesulfonamide] | − | −
7 | + | O=[N+]([O-])c1ccc(Oc2c(Cl)cc(S(=O)(=O)Nc3ccc(C(F)(F)F)cc3Cl)cc2Cl)c(Cl)c1 [Compound 240, 3,5-dichloro-4-(2-chloro-4-nitrophenoxy)-N-[2-chloro-4-(trifluoromethyl)phenyl]benzenesulfonamide] | + | +
8 | + | O=[N+]([O-])c1ccc(F)c(NS(=O)(=O)c2ccc(Oc3ncc(C(F)(F)F)cc3Cl)cc2)c1 [Example 258, 4-{[3-chloro-5-(trifluoromethyl)pyridin-2-yl]oxy}-N-(2-fluoro-5-nitrophenyl)benzene-sulfonamide] | + | +
9 | + | O=S(=O)(Nc1ccc(Oc2c(Cl)cc(Cl)cc2Cl)cc1)c1cc(Cl)ccc1Cl [Example 279, 2,5-dichloro-N-[4-(2,4,6-trichlorophenoxy)phenyl]benzenesulfonamide] | + | +

More lines, now with the values behind:

Row | Structure (SMILES) | APC Flag 8 pt [1] | PAD Assay, HELA 6 pt (HeLa cells) | PAD Assay, A549 6 pt (A549 cells)
10 | O=S(=O)(Nc1ccc(F)c(Cl)c1)c1ccc(Oc2ncc(C(F)(F)F)cc2Cl)cc1 [Example 256, N-(3-chloro-4-fluorophenyl)-4-{[3-chloro-5-(trifluoromethyl)pyridin-2-yl]oxy}benzene-sulfonamide] | + | + | +
11 | O=S(=O)(Nc1ccc(F)cc1C(F)(F)F)c1ccc(Oc2ncc(C(F)(F)F)cc2Cl)cc1 [Example 271, 4-{[3-chloro-5-(trifluoromethyl)pyridin-2-yl]oxy}-N-[4-fluoro-2-(trifluoromethyl)phenyl]benzenesulfonamide] |  | + | +
12 | COc1ccc(S(=O)(=O)Nc2ccc(Oc3cc(C(F)(F)F)ccc3Cl)cc2F)cc1 [Compound 287, N-{4-[2-chloro-5-(trifluoromethyl)phenoxy]-2-fluorophenyl}-4-methoxybenzenesulfonamide] | + | + | +
13 | O=S(=O)(Nc1cc(F)ccc1F)c1ccc(Oc2ncc(C(F)(F)F)cc2Cl)cc1 [Example 269, 4-{[3-chloro-5-(trifluoromethyl)pyridin-2-yl]oxy}-N-(2,5-difluorophenyl)benzene-sulfonamide] | + | − | −
14 | O=C(Nc1ccccc1C(F)(F)F)N1CCC(Oc2ccccc2C(F)(F)F)CC1 [Example 306, 4-(2-(trifluoromethyl)phenoxy)-N-(2-(trifluoromethyl)phenyl)piperidine-1-carboxamide] |  | − | −
15 | O=S(=O)(Nc1ccc(Oc2ncc(C(F)(F)F)cc2Cl)cc1)c1cccc(C(F)(F)F)c1 [Example 295, N-(4-(3-chloro-5-(trifluoromethyl)pyridin-2-yloxy)phenyl)-3-(trifluoromethyl)benzenesulfonamide] |  | + | +
16 | O=S(=O)(Nc1ccc(Oc2cc(C(F)(F)F)ccn2)cc1)c1ccccc1C(F)(F)F [Example 299, 2-(trifluoromethyl)-N-(4-(4-(trifluoromethyl)pyridin-2-yloxy)phenyl)benzenesulfonamide] |  | − | +
17 | O=S(=O)(Nc1ccc(Oc2cc(C(F)(F)F)ccn2)cc1)c1cccc(C(F)(F)F)c1 [Example 298, 3-(trifluoromethyl)-N-(4-(4-(trifluoromethyl)pyridin-2-yloxy)phenyl)benzenesulfonamide] |  | + | +
18 | O=S(=O)(c1ccccc1C(F)(F)F)N1CCC(Oc2ccccc2C(F)(F)F)CC1 [Example 302, 4-(2-(trifluoromethyl)phenoxy)-1-(2-(trifluoromethyl)phenylsulfonyl)piperidine] |  | + | +
19 | O=S(=O)(c1cccc(Cl)c1)N1CCC(Oc2ccccc2C(F)(F)F)CC1 [Example 300, 1-(3-chlorophenylsulfonyl)-4-(2-(trifluoromethyl)phenoxy)piperidine] |  | + | +
20 | O=S(=O)(Nc1ccc(Oc2cc(C(F)(F)F)ccn2)cc1)c1cccc(Cl)c1 [Example 297, 3-chloro-N-(4-(4-(trifluoromethyl)pyridin-2-yloxy)phenyl)benzenesulfonamide] |  | − | +
21 | O=C(Nc1cccc(Cl)c1)N1CCC(Oc2ccccc2C(F)(F)F)CC1 [Compound 305, N-(3-chlorophenyl)-4-(2-(trifluoromethyl)phenoxy)piperidine-1-carboxamide] |  | + | +
